22 compounds from patent publication US20260274833A1 (NiKang Therapeutics, Inc., priority 2022, published 2026) can be followed below.

For the assay, the target named is T1, CDK2 (Homo sapiens, UniProt P24941).
T1 construct: endogenous in cells; host or cells: OVCAR3 cells
Nature of the assay: Phospho-RB measurement in OVCAR3 cells (HTRF phospho-RB cellular kit). Particulars: inhibition of RB phosphorylation at S807/811 (HTRF, TR-FRET ratio 665/620), 24 h compound treatment, 0.3 to 10,000 nM. It is filed as cell-based. An outline of the steps: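 IC50 came from a four-parameter logistic fit of the DMSO-normalized TR-FRET ratio (665/620 nm). That ratio reflects RB phosphorylation at S807/811, read with an HTRF antibody pair 4 h after adding lysate at room temperature.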

For `CC(C)(C)c1nc(-c2cccc(NS(=O)(=O)N3CCc4c(CN5CCOCC5)cccc43)c2F)c(-c2ccnc(NC3CCN(S(C)(=O)=O)CC3)n2)s1` [Example 245, N-(3-(2-(tert-butyl)-5-(2-((1-(methylsulfonyl)piperidin-4-yl)amino)-pyrimidin-4-yl)thiazol-4-yl)-2-fluorophenyl)-4-(morpholinomethyl)-indoline-1-sulfonamide], the IC50 is 0.338 µM.
As for `O=S1(=O)CC2(CC(Nc3nccc(-c4sc(N5C6CCC5CN(CC(F)(F)F)C6)nc4-c4cccc(NS(=O)(=O)N5CCc6ccccc65)c4F)n3)C2)C1` [Example 38, N-(3-(5-(2-((2,2-dioxido-2-thiaspiro-[3.3]-heptan-6-yl)amino)pyrimidin-4-yl)-2-(3-(2,2,2-trifluoroethyl)-3,8-diazabicyclo[3.2.1]-octan-8-yl)thiazol-4-yl)-2-fluorophenyl)-indoline-1-sulfonamide], the IC50 amounted to 0.263 µM.
In the case of `COc1cccc2c1CN(S(=O)(=O)Nc1cccc(-c3nc(C(C)(C)C)sc3-c3ccnc(NC4CC5(C4)CS(=O)(=O)C5)n3)c1F)C2` [Example 202, N-(3-(2-(tert-butyl)-S-(2-((2,2-dioxido-2-thiaspiro[3.3]heptan-6-yl)amino)-pyrimidin-4-yl)thiazol-4-yl)-2-fluoro-phenyl)-4-methoxyisoindoline-2-sulfonamide] it was 0.0862 µM.
In the case of `CN(C)C(=O)c1ccc2c(c1)N(S(=O)(=O)Nc1cccc(-c3nc(C(C)(C)C)sc3-c3ccnc(NC4CC5(C4)CS(=O)(=O)C5)n3)c1F)CC2` [Example 198, 1-(N-(3-(2-(tert-butyl)-5-(2-((2,2-dioxido-2-thiaspiro[3.3]heptan-6-yl)amino)pyrimidin-4-yl)thiazol-4-yl)-2-fluorophenyl)sulfamoyl)-N,N-dimethylindoline-6-carboxamide] it was 0.667 µM; in that of `CC(C)(C)c1nc(-c2cccc(NS(=O)(=O)N3Cc4ccc(C#N)cc4C3)c2F)c(-c2ccnc(NC3CCN(S(=O)(=O)N4CCNCC4)CC3)n2)s1` [Example 149, N-(3-(2-(tert-butyl)-5-(2-((1-(piperazin-1-ylsulfonyl)piperidin-4-yl)amino)-pyrimidin-4-yl)thiazol-4-yl)-2-fluoro-phenyl)-5-cyanoisoindoline-2-sulfonamide], 0.488 µM; in that of `CC(C)(C)c1nc(-c2cccc(NS(=O)(=O)N3CCc4ccc(C#N)cc43)c2F)c(-c2ccnc(NC3CCN(S(=O)(=O)N4CCNCC4)CC3)n2)s1` [Example 120, N-(3-(2-(tert-butyl)-5-(2-((1-(piperazin-1-ylsulfonyl)piperidin-4-yl)amino)-pyrimidin-4-yl)thiazol-4-yl)-2-fluorophenyl)-6-cyanoindoline-1-sulfonamide], 0.0869 µM.
Next, `CC1CCCN(S(=O)(=O)Nc2cccc(-c3nc(C(C)(C)C)sc3-c3ccnc(NC4CCN(S(C)(=O)=O)CC4)n3)c2F)C1` (stereo not shown) [Example 62, N-(3-(2-(tert-butyl)-5-(2-((1-(methylsulfonyl)-piperidin-4-yl)amino)-pyrimidin-4-yl)thiazol-4-yl)-2-fluoro-phenyl)-3-methylpiperidine-1-sulfonamide]: 3.17 µM; `CC(C)(C)c1nc(-c2cccc(NS(=O)(=O)N3Cc4ccc(CC#N)cc4C3)c2F)c(-c2ccnc(NC3CC4(C3)CS(=O)(=O)C4)n2)s1` [Example 246, N-(3-(2-(tert-butyl)-5-(2-((2,2-dioxido-2-thiaspiro[3.3]heptan-6-yl)amino)-pyrimidin-4-yl)thiazol-4-yl)-2-fluoro-phenyl)-5-(cyanomethyl)-isoindoline-2-sulfonamide]: 0.334 µM.
On to `O=S1(=O)CC2(CC(Nc3nccc(-c4sc(C56CC(C5)C6)nc4-c4cccc(NS(=O)(=O)N5Cc6cccc(OC(F)F)c6C5)c4F)n3)C2)C1` [Example 24, N-(3-(2~(bicyclo [1.1.1]pentan-1-yl)-5-(2-((2,2-dioxido-2-thiaspiro[3.3]heptan-6-yl)amino)-pyrimidin-4-yl)thiazol-4-yl)-2-fluorophenyl)-4-(difluoromethoxy)-isoindoline-2-sulfonamide], for which the IC50 was 0.102 µM.
In the case of `CN1CCN(c2ccc(Nc3nccc(-c4sc(C(C)(C)C)nc4-c4cccc(NS(=O)(=O)N5CCc6ccc(C#N)cc65)c4F)n3)cc2)CC1` [Example 249, N-(3-(2-(tert-butyl)-5-(2-((4-(4-methyl-piperazin-1-yl)phenyl)amino)pyrimidin-4-yl)-thiazol-4-yl)-2-fluoro-phenyl)-6-cyanoindoline-1-sulfonamide] it was 0.684 µM; in that of `CN(C)CCN(C)S(=O)(=O)N1CCC(Nc2nccc(-c3sc(C(C)(C)C)nc3-c3cccc(NS(=O)(=O)N4Cc5ccccc5C4)c3F)n2)CC1` [Example 156, N-(3-(2-(tert-butyl)-5-(2-((1-(N-(2-(dimethylamino)ethyl)-N-methyl-sulfamoyl)piperidin-4-yl)amino)-pyrimidin-4-yl)thiazol-4-yl)-2-fluoro-phenyl)isoindoline-2-sulfonamide], 0.0903 µM; in that of `CNCc1ccc2c(c1)CCN2S(=O)(=O)Nc1cccc(-c2nc(C(C)(C)C)sc2-c2ccnc(NC3CCN(S(C)(=O)=O)CC3)n2)c1F` [Example 159, N-(3-(2-(tert-butyl)-5-(2-((1-(methylsulfonyl)-piperidin-4-yl)amino)-pyrimidin-4-yl)thiazol-4-yl)-2-fluoro-phenyl)-5-((methylamino)methyl)-indoline-1-sulfonamide], 4.08 µM.
Next, `O=S1(=O)CC2(CC(Nc3nccc(-c4sc(C56CC(C5)C6)nc4-c4cccc(NS(=O)(=O)N5CCOc6ccccc6C5)c4F)n3)C2)C1` [Example 272, N-(3-(2-(bicyclo [1.1.1]pentan-1-yl)-5-(2-((2,2-dioxido-2-thiaspiro[3.3]heptan-6-yl)amino)-pyrimidin-4-yl)thiazol-4-yl)-2-fluorophenyl)-2,3-dihydrobenzo-[f][1,4]oxazepine-4(5H)-sulfonamide]: 0.35 µM; `CC1(S(C)(=O)=O)CCC(Nc2nccc(-c3sc(C45CC(C(F)(F)F)(C4)C5)nc3-c3cccc(NS(=O)(=O)N4CCc5ccccc54)c3F)n2)CC1` (stereo not shown) [Example 285, N-(2-fluoro-3-(5-(2-((4-methyl-4-(methylsulfonyl)cyclohexyl)amino)pyrimidin-4-yl)-2-(3-(trifluoromethyl)bicyclo-[1.1.1]pentan-1-yl)thiazol-4-yl)phenyl)-indoline-1-sulfonamide]: 3.06 µM.
In the case of `CC(C)(C)c1nc(-c2cccc(NS(=O)(=O)N3Cc4ccccc4C3)c2F)c(-c2ccnc(NC3CCN(S(C)(=O)=O)CC3)n2)s1` [Example 69] it was 0.0889 µM; in that of `CS(=O)(=O)[C@H]1CC[C@H](Nc2nccc(-c3sc(N4C5CCC4CN(C4CC(F)(F)C4)C5)nc3-c3cccc(NS(=O)(=O)N4CCc5ccc(C(F)(F)F)cc54)c3F)n2)CC1` [Example 295, N-(3-(2-(3-(3,3-difluorocyclobutyl)-3,8-diazabicyclo[3.2.1]octan-8-yl)-5-(2-(((1r,4r)-4-(methylsulfonyl)cyclohexyl)-amino)pyrimidin-4-yl)thiazol-4-yl)-2-fluorophenyl)-6-(trifluoromethyl)-indoline-1-sulfonamide], 0.536 µM; in that of `CN1CC2CCC(C1)N2c1nc(-c2cccc(NS(=O)(=O)N3CCc4ccc(C(F)(F)F)cc43)c2F)c(-c2ccnc(N[C@H]3CC[C@H](S(C)(=O)=O)CC3)n2)s1` [Example 294, N-(2-fluoro-3-(2-(3-methyl-3,8-diazabicyclo[3.2.1]octan-8-yl)-5-(2-(((1r,4r)-4-(methylsulfonyl)cyclohexyl)-amino)pyrimidin-4-yl)thiazol-4-yl)phenyl)-6-(trifluoromethyl) indoline-1-sulfonamide], 0.0429 µM.
With `CNC(=O)c1ccc2c(c1)N(S(=O)(=O)Nc1cccc(-c3nc(C(C)(C)C)sc3-c3ccnc(NC4CC5(C4)CS(=O)(=O)C5)n3)c1F)CC2` [Example 203, 1-(N-(3-(2-(tert-butyl)-5-(2-((2,2-dioxido-2-thiaspiro[3.3]heptan-6-yl)amino)pyrimidin-4-yl)thiazol-4-yl)-2-fluorophenyl)sulfamoyl)-N-methyl-indoline-6-carboxamide], the IC50 was found to be 0.931 µM.
In the case of `CC(C)(C)c1nc(-c2cccc(NS(=O)(=O)N3Cc4ccccc4C3c3ccccc3)c2F)c(-c2ccnc(NC3CC4(C3)CS(=O)(=O)C4)n2)s1` (stereo not shown) [Example 208, N-(3-(2-(tert-butyl)-5-(2-((2,2-dioxido-2-thiaspiro[3.3]heptan-6-yl)amino)-pyrimidin-4-yl)thiazol-4-yl)-2-fluoro-phenyl)-1-phenylisoindoline-2-sulfonamide] it was 3.69 µM; in that of `CC(C)(C)c1nc(-c2cccc(NS(=O)(=O)N3Cc4ccc(C(F)F)cc4C3)c2F)c(-c2ccnc(NC3CC4(C3)CS(=O)(=O)C4)n2)s1` [Example 255, N-(3-(2-(tert-butyl)-5-(2-((2,2-dioxido-2-thiaspiro[3.3]heptan-6-yl)amino)-pyrimidin-4-yl)thiazol-4-yl)-2-fluoro-phenyl)-5-(difluoromethyl) isoindoline-2-sulfonamide], 0.683 µM; in that of `O=S1(=O)CC2(CC(Nc3nccc(-c4sc(C56CC(C5)C6)nc4-c4cccc(NS(=O)(=O)N5CCc6ccc(C(F)F)cc65)c4F)n3)C2)C1` [Example 27, N-(3-(2-(bicyclo [1.1.1]pentan-1-yl)-5-(2-((2,2-dioxido-2-thiaspiro[3.3]heptan-6-yl)amino)-pyrimidin-4-yl)thiazol-4-yl)-2-fluorophenyl)-6-(difluoromethyl)-indoline-1-sulfonamide], 0.161 µM.
In the case of `O=S1(=O)CC2(CC(Nc3nccc(-c4sc(C56CC(C5)C6)nc4-c4cccc(NS(=O)(=O)N5Cc6cccc(C(F)(F)F)c6C5)c4F)n3)C2)C1` [Example 25, N-(3-(2-(bicyclo [1.1.1]pentan-1-yl)-5-(2-((2,2-dioxido-2-thiaspiro[3.3]heptan-6-yl)amino)-pyrimidin-4-yl)thiazol-4-yl)-2-fluorophenyl)-4-(trifluoromethyl)-isoindoline-2-sulfonamide] it was 0.0751 µM.
